According to patent US20130172374A1, “SOLID COMPOSITION FOR CONTROLLED RELEASE OF IONIZABLE ACTIVE AGENTS WITH POOR AQUEOUS SOLUBILITY AT LOW PH AND METHODS OF USE THEREOF” (Portola Pharmaceuticals, Inc., priority 2008, published 2013):
Like-named read-outs stand apart in the source and are kept apart here.

Legend:
[1] = known drug, background; cited from earlier work
[2] = known drug, background; cited from earlier work; remark: listed apart in the source
[3] = known drug, background; cited from earlier work; remark: listed apart in the source
pKa = format: physicochemical
logD (pH7.4) = format: physicochemical
moisture sensitivity = format: physicochemical
aqueous solubility = format: physicochemical
logP = format: physicochemical

pKa (pKa)	logD (pH7.4) (logD (pH7.4))	moisture sensitivity (moisture sensitivity)	aqueous solubility (aqueous solubility; at about 37° C.) [µg/mL]	aqueous solubility of the free acid form (aqueous solubility; free acid form, pH 1.0-7.4) [µg/mL]	logP (logP)	SMILES	logP [1]	logD (pH7.4) [2]	pKa [3]
						COc1ccc2c(c1)c(CC(=O)O)c(C)n2C(=O)c1ccc(Cl)cc1 [Indomethacin]	about 3.8	about 0.30	
						CC(C(=O)O)c1cccc(C(=O)c2ccccc2)c1 (racemic) [Ketoprofen, (RS)-2-(3-benzoylphenyl)propanoic acid]	about 0.97	about 1.34	about 5.94
about 3.3	about −1.6	moisture sensitive	< 100	< 100	about 2.5	CNc1cc2[nH]c(=O)n(-c3ccc(NC(=O)NS(=O)(=O)c4ccc(Cl)s4)cc3)c(=O)c2cc1F.[K] [Compound 1, [4-(6-fluoro-7-methylamino-2,4-dioxo-1,4-dihydro-2H-quinazolin-3-yl)-phenyl]-5-chloro-thiophen-2-yl-sulfonylurea potassium salt]			
